Read-outs that look alike come from different tables or passages of the source.
Tests used:
[1] = system: HIV-1 BaL or HIV-1 NL4-3; details: for HIV replication: CD8+-depleted PBMCs infected with HIV-1 BaL or HIV-1 NL4-3
[2] = system: HIV-1 BaL or HIV-1 NL4-3; test: microbe, parasite or virus in culture; details: Human immunodeficiency virus 1, PBMC

Compound | EC50 [1] | HIV replication [1] | EC50 [2]
enfuvirtide | 27.9 nM | prevent HIV replication | –
CC(C)CN(C[C@@H](O)[C@H](Cc1ccccc1)NC(=O)O[C@H]1CO[C@H]2OCC[C@H]21)S(=O)(=O)c1ccc(N)cc1 [darunavir] | – | prevent HIV replication | 4.3 nM
